Experimental data from patent US12612388B2, “Receptor-interacting protein 1 inhibitors including piperazine heterocyclic amide ureas” (SIRONAX LTD., priority 2020, dated 2026).

tested on: HT-29 cells; assay: Cellular RIP1 inhibitory activity: necroptosis of HT-29 cells induced by TNF-α/SMAC mimetic/zVAD-FMK, CellTiter-Glo viability; format: cell-based; conditions: Homo sapiens; HT-29 cells; TNF-α 10 ng/ml, SMAC mimetic 6 μM, zVAD-FMK 10 μM; 20 hours; geometric mean, 10 points, duplicates; read-out: EC50 (Cell activity; Necrosis or Necroptosis Inhibitory Activity)
Method in brief: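 HT-29 cells (~5,000/well) in FBS-free McCoy's 5A were driven into necroptosis with TNF-α (10 ng/ml), SMAC mimetic (6 μM) and zVAD-FMK (10 μM) alongside 10-point 1:3 compound dilutions for 20 h at 37 °C. Viability measured by CellTiter-Glo luminescence; geometric mean EC50 from duplicate dose-responses.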

Q: For `COC1(C)CN(C(=O)c2nc(N3CCN(C(=O)N4N=CC[C@H]4c4cc(F)cc(F)c4)CC3)ncc2F)C1` [Compound 22, (S)-(5-(3,5-difluorophenyl)-4,5-dihydro-1H-pyrazol-1-yl)(4-(5-fluoro-4-(3-methoxy-3-methylazetidine-1-carbonyl)pyrimidin-2-yl)piperazin-1-yl)methanone], which EC50 is on record?
A: 0.1 to 100 nM

Q: `CN1CCN(C(=O)c2nc(N3CCN(C(=O)N4N=CC[C@H]4c4cc(F)cc(F)c4)CC3)ncc2F)CC1` [Compound 19, (5-(3,5-difluorophenyl)-4,5-dihydro-1H-pyrazol-1-yl)(4-(5-fluoro-4-(4-methylpiperazine-1-carbonyl)pyrimidin-2-yl)piperazin-1-yl)methanone] was tested. Which EC50 did it give?
A: 0.1 to 100 nM

Q: With `COC1CN(C(=O)c2nc(N3CCN(C(=O)N4N=CCC4c4cncc(Cl)c4)CC3)ncc2F)C1` (stereo not shown) [Compound 66, (5-(5-chloropyridin-3-yl)-4,5-dihydro-1H-pyrazol-1-yl)(4-(5-fluoro-4-(3-methoxyazetidine-1-carbonyl)pyrimidin-2-yl)piperazin-1-yl)methanone] as the molecule, how does the EC50 read?
A: 0.1 to 100 nM

Q: Which EC50 does the source give for `NC(=O)c1ccnc(N2CCN(C(=O)N3N=CC[C@H]3c3ccccc3)CC2)n1` [Compound 41, (S)-2-(4-(5-phenyl-4,5-dihydro-1H-pyrazole-1-carbonyl)piperazin-1-yl)pyrimidine-4-carboxamide] here?
A: 0.1 to 100 nM
